According to ChEMBL document CHEMBL3880388, “Dihydropyrimidin-2(1H)-ones and dihydropyrimidin-2(1H)-thiones as inhibitors of sodium iodide symporter” (2014):

Tests used:
[1] = target: T1, Sodium/iodide cotransporter (Rattus norvegicus, UniProt Q63008); experiment: Inhibition of sodium iodide symporter in rat FRTL5 cells assessed as inhibition of iodide uptake using Na125I after 60 mins by scintillation counting method; format: cell-based, FRTL-5
T1 sequence (Q63008 whole entry): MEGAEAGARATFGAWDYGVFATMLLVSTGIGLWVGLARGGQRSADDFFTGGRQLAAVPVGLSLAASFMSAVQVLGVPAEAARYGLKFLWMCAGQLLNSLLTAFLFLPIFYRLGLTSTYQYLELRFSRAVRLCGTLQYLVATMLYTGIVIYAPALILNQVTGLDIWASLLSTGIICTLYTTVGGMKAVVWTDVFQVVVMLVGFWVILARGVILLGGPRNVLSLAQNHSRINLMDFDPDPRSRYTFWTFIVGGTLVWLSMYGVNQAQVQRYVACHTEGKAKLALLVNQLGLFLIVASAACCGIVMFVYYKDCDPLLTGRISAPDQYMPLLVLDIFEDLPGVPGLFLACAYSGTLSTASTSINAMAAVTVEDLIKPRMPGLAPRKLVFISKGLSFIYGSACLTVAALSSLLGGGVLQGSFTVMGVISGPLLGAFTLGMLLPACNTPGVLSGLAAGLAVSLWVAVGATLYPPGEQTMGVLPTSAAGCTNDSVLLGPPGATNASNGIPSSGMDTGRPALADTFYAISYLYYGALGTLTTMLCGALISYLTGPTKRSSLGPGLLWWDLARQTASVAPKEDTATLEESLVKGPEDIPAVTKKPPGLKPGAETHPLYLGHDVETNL

[2] = Cytotoxicity against rat FRTL5 cells assessed as effect on cell growth at 1 uM measured at 24 hrs by MTT assay; format: cell-based; settings: frtl-5, 24 h
[3] = target: T1, Sodium/iodide cotransporter; experiment: Inhibition of sodium iodide symporter in rat FRTL5 cells assessed as inhibition of iodide uptake using NaI/Na125I after 45 mins by scintillation counting method; format: cell-based, FRTL-5

SMILES: COc1ccc(COC(=O)C2=C(C)NC(=O)NC2c2ccccc2)cc1 (centres undefined)
- IC50 [1]: 400 nM

SMILES: COc1ccc(COC(=O)C2=C(C)N(C)C(=O)N(C)C2c2ccco2)cc1OC (centres undefined)
- Activity [2]: Non-Toxic

SMILES: COc1ccc(COC(=O)C2=C(C)NC(=O)NC2c2ccc(F)cc2)cc1 (centres undefined)
- Activity [2]: Non-Toxic

SMILES: COc1ccc(COC(=O)C2=C(C)NC(=O)NC2c2ccoc2)cc1 (centres undefined)
- Activity [2]: Non-Toxic

SMILES: CC1=C(C(=O)OCc2ccc3c(c2)OCO3)C(c2ccccc2)NC(=O)N1 (centres undefined)
- Activity [2]: Non-Toxic

SMILES: COc1ccc(COC(=O)C2=C(C)N(C)C(=O)NC2c2ccccc2)cc1 (centres undefined)
- Activity [2]: Non-Toxic

SMILES: COc1ccc(COC(=O)C2=C(c3ccccc3)NC(=O)NC2c2ccccc2)cc1 (centres undefined)
- Activity [2]: Non-Toxic

SMILES: COc1ccc(COC(=O)C2=C(C)N(C)C(=O)N(C)C2c2ccccc2)cc1 (centres undefined)
- Activity [2]: Non-Toxic

SMILES: CC1=C(C(=O)NCc2ccc3c(c2)OCO3)C(c2ccccc2)NC(=O)N1 (centres undefined)
- Activity [2]: Non-Toxic

SMILES: COc1ccc(COC(=O)C2=C(C)NC(=O)NC2c2cccc(F)c2)cc1 (centres undefined)
- Activity [2]: Non-Toxic

SMILES: CCC1=C(C(=O)OCc2ccc(OC)cc2)C(c2ccccc2)NC(=O)N1 (centres undefined)
- Activity [2]: Non-Toxic

SMILES: COc1cccc(COC(=O)C2=C(C)NC(=O)NC2c2ccco2)c1 (centres undefined)
- Activity [2]: Non-Toxic

SMILES: CC1=C(C(=O)OCc2ccccc2Cl)C(c2ccccc2)NC(=O)N1 (centres undefined)
- Activity [2]: Non-Toxic

SMILES: COc1ccc(COC(=O)C2=C(C)NC(=O)NC2c2ccccc2F)cc1 (centres undefined)
- Activity [2]: Non-Toxic

SMILES: CC1=C(C(=O)OCc2ccc3c(c2)OCO3)C(c2ccco2)NC(=O)N1 (centres undefined)
- Activity [2]: Non-Toxic

SMILES: COc1ccc(COC(=O)C2=C(CNC(=O)c3ccccc3)NC(=O)NC2c2ccccc2)cc1 (centres undefined)
- Activity [2]: Non-Toxic

SMILES: COc1ccc(COC(=O)C2=C(C)NC(=S)NC2c2ccccc2)cc1 (centres undefined)
- Activity [2]: Non-Toxic

SMILES: COc1ccc(COC(=O)C2=C(C)N(C)C(=O)NC2c2ccco2)cc1 (centres undefined)
- Activity [2]: Non-Toxic

SMILES: CC1=C(C(=O)OCc2ccc3c(c2)OCO3)C(c2ccoc2)NC(=O)N1 (centres undefined)
- Activity [2]: Non-Toxic

SMILES: COc1cccc(COC(=O)C2=C(C)NC(=O)NC2c2ccccc2)c1 (centres undefined)
- Activity [2]: Non-Toxic

SMILES: F[B-](F)(F)c1ccc(OCc2ccccc2)cc1
- IC50 [3]: 400 nM

SMILES: CC1=C(C(=O)OCc2ccc(F)cc2)C(c2ccccc2)NC(=O)N1 (centres undefined)
- Activity [2]: Non-Toxic

SMILES: COc1ccc(COC(=O)C2=C(c3cccs3)NC(=O)NC2c2ccccc2)cc1 (centres undefined)
- Activity [2]: Non-Toxic

SMILES: COc1ccc(COC(=O)C2=C(C)NC(=O)NC2c2ccsc2)cc1 (centres undefined)
- Activity [2]: Non-Toxic

SMILES: COc1ccc(COC(=O)C2=C(C3CCCCC3)NC(=O)NC2c2ccccc2)cc1 (centres undefined)
- Activity [2]: Non-Toxic

SMILES: CC1=C(C(=O)OCc2ccccc2)C(c2ccccc2)NC(=O)N1 (centres undefined)
- Activity [2]: Non-Toxic

SMILES: COc1ccc(COC(=O)C2=C(C)NC(=O)NC2c2cccc(Cl)c2)cc1 (centres undefined)
- Activity [2]: Non-Toxic

SMILES: COc1ccc(COC(=O)C2=C(Cc3ccccc3)NC(=O)NC2c2ccccc2)cc1 (centres undefined)
- Activity [2]: Non-Toxic

SMILES: CC1=C(C(=O)OCc2ccc3c(c2)OCO3)C(c2ccco2)N(C)C(=O)N1C (centres undefined)
- Activity [2]: Non-Toxic

SMILES: COc1ccc(COC(=O)C2=C(COc3ccccc3)NC(=O)NC2c2ccccc2)cc1 (centres undefined)
- Activity [2]: Non-Toxic

SMILES: COc1ccc(COC(=O)C2=C(C)NC(=O)NC2c2cccs2)cc1 (centres undefined)
- Activity [2]: Non-Toxic

SMILES: COc1ccc(COC(=O)C2=C(C)N(C)C(=O)N(C)C2c2ccco2)cc1 (centres undefined)
- Activity [2]: Non-Toxic

SMILES: COc1ccc(COC(=O)C2=C(CC(C)C)NC(=O)NC2c2ccccc2)cc1 (centres undefined)
- Activity [2]: Non-Toxic

SMILES: CC1=C(C(=O)OCc2ccc3c(c2)OCO3)C(c2ccco2)NC(=O)N1C (centres undefined)
- Activity [2]: Non-Toxic

SMILES: COc1cccc(COC(=O)C2=C(C)N(C)C(=O)N(C)C2c2ccco2)c1 (centres undefined)
- Activity [2]: Non-Toxic

SMILES: CC1=C(C(=O)OCc2ccc(Cl)cc2)C(c2ccccc2)NC(=O)N1 (centres undefined)
- Activity [2]: Non-Toxic

SMILES: COc1ccc(COC(=O)C2=C(Cc3cccs3)NC(=O)NC2c2ccccc2)cc1 (centres undefined)
- Activity [2]: Non-Toxic

SMILES: COc1ccc(COC(=O)C2=C(C)NC(=O)NC2c2ccc(C)o2)cc1 (centres undefined)
- Activity [2]: Non-Toxic

SMILES: CC1=C(C(=O)OCc2ccccc2C)C(c2ccccc2)NC(=O)N1 (centres undefined)
- Activity [2]: Non-Toxic

SMILES: CCCCCC1=C(C(=O)OCc2ccc(OC)cc2)C(c2ccccc2)NC(=O)N1 (centres undefined)
- Activity [2]: Non-Toxic

SMILES: COc1cccc(COC(=O)C2=C(C)N(C)C(=O)NC2c2ccco2)c1 (centres undefined)
- Activity [2]: Non-Toxic

SMILES: COc1ccc(COC(=O)C2=C(C)NC(=O)NC2c2cccc(Br)c2)cc1 (centres undefined)
- Activity [2]: Non-Toxic

SMILES: COc1ccc(COC(=O)C2=C(C)NC(=O)NC2c2ccco2)cc1 (centres undefined)
- Activity [2]: Non-Toxic

SMILES: COc1ccc(COC(=O)C2=C(C)NC(=O)NC2C2CC2)cc1 (centres undefined)
- Activity [2]: Non-Toxic
